{"source": "paper PMC10739591", "about": "“mCherry on Top: A Positive Read-Out Cellular Platform for Screening DMD Exon Skipping Xenopeptide–PMO Conjugates” (Bioconjugate Chemistry, 2023)", "system": "DMD exon 23", "experiment": "Splicing modulation in vivo (DMD exon 23 skipping, nested RT-PCR ex vivo)", "settings": "BALB/c mice, i.v., 375 µg PMO, 48 h after injection", "method": "6-week-old female BALB/c mice (BALB/cByJRj, Janvier, Le Genest-Saint-Isle, France) were housed in isolated ventilated cages under pathogen-free conditions with a 12 h light/dark interval. The mice were acclimated for 7 days prior to treatments. Water and food were provided ad libitum. For splice switching in the physiological DMD gene, PMO formulations were prepared 48 h before intravenous injection, as described above. The freeze-dried PMO formulations were reconstituted with HBG to obtain a concentration of 375 μg PMO per 150 μL. The mice were randomly divided into three groups (n = 6 for PMO(Ex23)-1395, and n = 5 for free 3′ primary amine-modified PMO(Ex23) and PMO(705)-1395). 150 μL of PMO solution was injected intravenously into a lateral tail vein. 48 h after injection, the mice were euthanized and the brain, spleen, quadriceps femoris muscle, kidneys, liver, lung, and heart were harvested. For stabilization of the mRNA, the organs were incubated in RNAlater solution (Thermo Fisher Scientific, Waltham) overnight at 4 °C and afterward stored at −20 °C. Each organ was manually homogenized using a mortar and pestle and liquid nitrogen. […]\nThe final PCR products were analyzed by agarose gel electrophoresis (2% agarose gel; 100 V; 2 h). Individual band intensities were quantified and put into relation to the band of full-length DMD-Ex20–24 with a size of 633 bp by using ImageJ software.", "data": [{"substance": "PMO(Ex23): PMO GGCCAAACCTCGGCTTACCTGAAAT with 3'-primary amine; targets donor splice site of DMD intron 23 (PMO, 3'-primary amine, chemistry not fully specified)", "values": [{"measurement": "DMD exon 23 skipping in skeletal muscle (quadriceps femoris)", "value": "predominant splice-switching activity in the skeletal muscle"}]}]}
